# Assays:
# Details in all cases: 1 mM ATP; inhibitor
# DRAK2 = molecular target: T1, DRAK2 (Homo sapiens, UniProt O94768)
# T1 construct: gene STK17B
# Protocol: (§1) Kinase selectivity panel Kinome profiling was conducted by AssayQuant Technologies (Marlboro, MA) using Sox chromophore technology and Sox-based peptide substrates developed for human kinases in a 384-well format. Compounds were tested at 1 µM in the presence of 1 mM ATP.
# CDK17 = CDK17 (Homo sapiens, UniProt Q00537)
# Protocol: as §1
# NEK3 = NEK3 (Homo sapiens, UniProt P51956)
# Protocol: as §1
# KIT = KIT (Homo sapiens, UniProt P10721)
# Protocol: as §1
# PDK1 = molecular target: T2, PDK1 (Homo sapiens, UniProt O15530)
# T2 construct: gene PDPK1
# Protocol: as §1
# TTBK2 = TTBK2 (Homo sapiens, UniProt Q6IQ55)
# Protocol: as §1
# TTK = TTK (Homo sapiens, UniProt P33981)
# Protocol: as §1
# SGK2 = SGK2 (Homo sapiens, UniProt Q9HBY8)
# Protocol: as §1
# CDK1/B1 = CDK1/B1 (Homo sapiens, UniProt P06493)
# Protocol: as §1
# CDK3/E1 = CDK3/E1 (Homo sapiens, UniProt Q00526)
# Protocol: as §1
# JAK2(JH1) = JAK2(JH1) (Homo sapiens, UniProt O60674)
# Protocol: as §1
# PLK4 = PLK4 (Homo sapiens, UniProt O00444)
# Protocol: as §1
# DCLK2/DCAML2 = DCLK2/DCAML2 (Homo sapiens, UniProt Q8N568)
# Protocol: as §1
# CDK6/D3 = CDK6/D3 (Homo sapiens, UniProt Q00534)
# Sequence of CDK6/D3 (Q00534 whole entry): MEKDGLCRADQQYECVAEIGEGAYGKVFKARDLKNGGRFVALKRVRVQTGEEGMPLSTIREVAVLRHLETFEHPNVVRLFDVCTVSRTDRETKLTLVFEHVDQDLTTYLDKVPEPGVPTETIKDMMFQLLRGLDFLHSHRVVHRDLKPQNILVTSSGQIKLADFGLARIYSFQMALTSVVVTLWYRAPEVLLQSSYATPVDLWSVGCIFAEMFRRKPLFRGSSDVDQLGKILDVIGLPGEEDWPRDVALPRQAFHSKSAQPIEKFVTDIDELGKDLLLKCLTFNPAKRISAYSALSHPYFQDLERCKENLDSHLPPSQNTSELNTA
# Sequence of CDK6/D3 (P30281 whole entry partner): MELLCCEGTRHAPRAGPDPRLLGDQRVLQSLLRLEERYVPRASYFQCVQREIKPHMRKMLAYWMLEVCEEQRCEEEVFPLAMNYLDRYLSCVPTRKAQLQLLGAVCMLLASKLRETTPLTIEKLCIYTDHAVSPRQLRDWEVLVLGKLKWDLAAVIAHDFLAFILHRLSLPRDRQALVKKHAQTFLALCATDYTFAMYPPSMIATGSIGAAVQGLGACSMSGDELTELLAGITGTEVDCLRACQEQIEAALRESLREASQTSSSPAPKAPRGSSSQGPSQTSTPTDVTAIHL
# Protocol: as §1
# EPHA6 = EPHA6 (Homo sapiens, UniProt Q9UF33)
# Protocol: as §1
# CDK9/K = CDK9/K (Homo sapiens, UniProt P50750)
# Protocol: as §1
# TEK/TIE2 = TEK/TIE2 (Homo sapiens, UniProt Q02763)
# Protocol: as §1
# GSK3B = GSK3B (Homo sapiens, UniProt P49841)
# Protocol: as §1
# STK4/MST1 = STK4/MST1 (Homo sapiens, UniProt Q13043)
# Protocol: as §1
# CHAK1 = molecular target: T3, CHAK1 (Homo sapiens, UniProt Q96QT4)
# T3 construct: gene TRPM7
# Protocol: as §1
# PRKCG/PKCG = PRKCG/PKCG (Homo sapiens, UniProt P05129)
# Protocol: as §1
# MNK2 = molecular target: T4, MNK2 (Homo sapiens, UniProt Q9HBH9)
# T4 construct: gene MKNK2
# T4 sequence (Q9HBH9 whole entry): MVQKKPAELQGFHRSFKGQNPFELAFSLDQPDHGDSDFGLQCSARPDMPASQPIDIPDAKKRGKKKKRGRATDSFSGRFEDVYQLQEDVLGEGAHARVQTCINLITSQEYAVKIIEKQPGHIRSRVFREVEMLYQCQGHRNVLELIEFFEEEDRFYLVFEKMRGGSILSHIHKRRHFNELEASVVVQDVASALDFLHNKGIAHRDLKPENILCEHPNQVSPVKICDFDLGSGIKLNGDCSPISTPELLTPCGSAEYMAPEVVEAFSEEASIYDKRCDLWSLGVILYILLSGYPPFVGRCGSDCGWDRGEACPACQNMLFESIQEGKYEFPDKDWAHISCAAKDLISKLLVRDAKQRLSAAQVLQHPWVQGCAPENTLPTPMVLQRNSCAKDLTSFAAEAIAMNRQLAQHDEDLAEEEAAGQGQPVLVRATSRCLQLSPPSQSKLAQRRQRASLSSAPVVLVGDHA
# Protocol: as §1
# CSNK2A1/CK2A1 = CSNK2A1/CK2A1 (Homo sapiens, UniProt P68400)
# Protocol: as §1
# MARK2 = MARK2 (Homo sapiens, UniProt Q7KZI7)
# Protocol: as §1
# CDC42BPG/DMPK2 = CDC42BPG/DMPK2 (Homo sapiens, UniProt Q6DT37)
# Protocol: as §1
# MERTK/MER = MERTK/MER (Homo sapiens, UniProt Q12866)
# Sequence of MERTK/MER (Q12866 whole entry): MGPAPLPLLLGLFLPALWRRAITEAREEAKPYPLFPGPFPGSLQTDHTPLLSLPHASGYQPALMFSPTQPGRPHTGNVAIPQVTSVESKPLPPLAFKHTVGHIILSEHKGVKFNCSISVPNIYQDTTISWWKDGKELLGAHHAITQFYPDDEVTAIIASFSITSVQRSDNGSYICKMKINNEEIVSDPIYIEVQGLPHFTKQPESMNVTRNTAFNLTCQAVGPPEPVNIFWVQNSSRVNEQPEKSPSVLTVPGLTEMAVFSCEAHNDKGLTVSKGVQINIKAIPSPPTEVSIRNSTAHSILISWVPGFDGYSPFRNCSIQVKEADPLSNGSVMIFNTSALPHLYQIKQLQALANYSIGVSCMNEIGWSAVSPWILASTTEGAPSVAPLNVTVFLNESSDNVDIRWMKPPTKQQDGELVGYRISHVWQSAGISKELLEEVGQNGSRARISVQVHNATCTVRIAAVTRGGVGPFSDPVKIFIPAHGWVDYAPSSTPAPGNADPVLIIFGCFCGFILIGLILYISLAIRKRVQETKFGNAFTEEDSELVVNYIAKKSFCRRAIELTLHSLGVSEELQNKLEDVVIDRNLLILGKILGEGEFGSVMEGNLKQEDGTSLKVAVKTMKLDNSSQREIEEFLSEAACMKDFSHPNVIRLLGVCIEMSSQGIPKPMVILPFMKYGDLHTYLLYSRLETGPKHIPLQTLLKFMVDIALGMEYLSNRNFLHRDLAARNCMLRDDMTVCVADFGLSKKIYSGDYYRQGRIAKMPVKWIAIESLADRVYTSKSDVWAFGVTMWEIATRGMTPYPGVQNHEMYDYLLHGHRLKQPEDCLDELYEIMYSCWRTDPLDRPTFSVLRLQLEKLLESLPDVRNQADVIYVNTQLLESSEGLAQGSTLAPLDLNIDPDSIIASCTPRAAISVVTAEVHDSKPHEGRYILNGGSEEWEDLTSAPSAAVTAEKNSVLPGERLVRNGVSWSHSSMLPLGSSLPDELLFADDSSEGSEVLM
# Protocol: as §1
# DDR1 = DDR1 (Homo sapiens, UniProt Q08345)
# Sequence of DDR1 (Q08345 whole entry): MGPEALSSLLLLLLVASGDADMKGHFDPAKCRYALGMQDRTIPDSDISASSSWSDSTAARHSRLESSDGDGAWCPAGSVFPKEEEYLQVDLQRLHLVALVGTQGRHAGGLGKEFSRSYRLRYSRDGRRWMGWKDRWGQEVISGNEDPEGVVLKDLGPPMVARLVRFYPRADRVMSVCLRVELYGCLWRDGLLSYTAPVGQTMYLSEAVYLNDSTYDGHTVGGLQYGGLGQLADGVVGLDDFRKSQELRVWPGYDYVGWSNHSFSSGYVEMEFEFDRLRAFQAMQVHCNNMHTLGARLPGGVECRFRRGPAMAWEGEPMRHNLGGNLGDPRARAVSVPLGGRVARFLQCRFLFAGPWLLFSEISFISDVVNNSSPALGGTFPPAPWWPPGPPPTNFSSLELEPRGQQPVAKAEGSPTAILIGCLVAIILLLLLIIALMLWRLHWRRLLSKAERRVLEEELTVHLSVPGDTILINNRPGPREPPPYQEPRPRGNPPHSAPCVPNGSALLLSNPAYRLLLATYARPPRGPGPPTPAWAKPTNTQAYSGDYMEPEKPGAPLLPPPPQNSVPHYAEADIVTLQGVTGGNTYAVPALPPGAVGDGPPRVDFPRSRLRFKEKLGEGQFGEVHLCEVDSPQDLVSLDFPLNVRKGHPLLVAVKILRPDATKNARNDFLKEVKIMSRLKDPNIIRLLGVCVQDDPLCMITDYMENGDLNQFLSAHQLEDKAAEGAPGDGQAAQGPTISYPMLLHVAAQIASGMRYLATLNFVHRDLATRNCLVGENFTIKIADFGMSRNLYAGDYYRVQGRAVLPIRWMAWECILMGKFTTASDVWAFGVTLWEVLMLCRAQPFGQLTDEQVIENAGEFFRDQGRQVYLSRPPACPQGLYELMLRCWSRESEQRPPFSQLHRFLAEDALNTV
# Protocol: as §1
# RPS6KA6/RSK4 = RPS6KA6/RSK4 (Homo sapiens, UniProt Q9UK32)
# Protocol: as §1
# ULK3 = ULK3 (Homo sapiens, UniProt Q6PHR2)
# Protocol: as §1
# HIPK1 = HIPK1 (Homo sapiens, UniProt Q86Z02)
# Protocol: as §1
# FGFR2 = FGFR2 (Homo sapiens, UniProt P21802)
# Sequence of FGFR2 (P21802 whole entry): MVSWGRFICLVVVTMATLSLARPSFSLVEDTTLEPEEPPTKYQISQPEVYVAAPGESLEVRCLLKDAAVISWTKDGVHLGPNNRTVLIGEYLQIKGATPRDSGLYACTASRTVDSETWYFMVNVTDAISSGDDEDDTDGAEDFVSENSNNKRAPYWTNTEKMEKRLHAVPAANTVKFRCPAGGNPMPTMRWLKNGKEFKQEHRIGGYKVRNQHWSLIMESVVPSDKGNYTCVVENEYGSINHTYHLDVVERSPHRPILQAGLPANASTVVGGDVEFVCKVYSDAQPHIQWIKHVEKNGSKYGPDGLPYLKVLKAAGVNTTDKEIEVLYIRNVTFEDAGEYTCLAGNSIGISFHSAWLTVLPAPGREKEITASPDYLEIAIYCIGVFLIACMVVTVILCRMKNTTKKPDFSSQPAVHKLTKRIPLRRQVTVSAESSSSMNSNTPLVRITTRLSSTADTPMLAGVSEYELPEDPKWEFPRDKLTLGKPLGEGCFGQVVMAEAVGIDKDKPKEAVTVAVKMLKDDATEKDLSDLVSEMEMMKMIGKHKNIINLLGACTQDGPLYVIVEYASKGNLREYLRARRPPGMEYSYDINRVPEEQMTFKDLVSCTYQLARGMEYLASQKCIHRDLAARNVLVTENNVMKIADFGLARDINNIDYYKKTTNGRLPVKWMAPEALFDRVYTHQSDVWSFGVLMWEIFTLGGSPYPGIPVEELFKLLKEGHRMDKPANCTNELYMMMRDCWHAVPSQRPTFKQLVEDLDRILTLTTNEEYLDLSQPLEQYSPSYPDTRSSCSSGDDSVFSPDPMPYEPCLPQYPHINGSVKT
# Protocol: as §1
# RIPK1 = RIPK1 (Homo sapiens, UniProt Q13546)
# Protocol: as §1
# RPS6KA2/RSK3 = RPS6KA2/RSK3 (Homo sapiens, UniProt Q15349)
# Protocol: as §1
# CDK9/T1 = CDK9/T1 (Homo sapiens, UniProt P50750)
# Protocol: as §1
# PRKCQ/PKCQ = PRKCQ/PKCQ (Homo sapiens, UniProt Q04759)
# Sequence of PRKCQ/PKCQ (Q04759 whole entry): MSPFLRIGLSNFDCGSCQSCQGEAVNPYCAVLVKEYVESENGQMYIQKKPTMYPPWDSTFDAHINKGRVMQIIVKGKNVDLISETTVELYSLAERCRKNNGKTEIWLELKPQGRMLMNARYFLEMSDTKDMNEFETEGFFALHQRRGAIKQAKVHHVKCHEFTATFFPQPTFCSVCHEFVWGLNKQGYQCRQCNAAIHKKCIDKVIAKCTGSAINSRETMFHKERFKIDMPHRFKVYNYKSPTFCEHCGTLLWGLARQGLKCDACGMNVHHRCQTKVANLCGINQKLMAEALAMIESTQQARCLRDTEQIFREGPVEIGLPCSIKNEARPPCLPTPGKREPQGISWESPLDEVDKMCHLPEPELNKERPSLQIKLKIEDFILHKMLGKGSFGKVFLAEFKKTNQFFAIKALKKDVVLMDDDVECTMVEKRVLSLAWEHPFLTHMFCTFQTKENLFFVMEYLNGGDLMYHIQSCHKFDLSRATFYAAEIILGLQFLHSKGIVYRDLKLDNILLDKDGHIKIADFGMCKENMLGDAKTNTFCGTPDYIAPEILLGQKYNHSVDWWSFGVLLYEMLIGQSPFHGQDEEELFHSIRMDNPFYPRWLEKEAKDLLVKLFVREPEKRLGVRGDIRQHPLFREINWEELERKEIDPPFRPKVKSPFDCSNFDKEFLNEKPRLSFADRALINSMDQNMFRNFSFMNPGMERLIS
# Protocol: as §1
# MAP4K2/GCK = MAP4K2/GCK (Homo sapiens, UniProt Q12851)
# Protocol: as §1
# ERN1 = ERN1 (Homo sapiens, UniProt O75460)
# Protocol: as §1
# NTRK2/TRKB = NTRK2/TRKB (Homo sapiens, UniProt Q16620)
# Protocol: as §1
# Sequence of CDK17 (Q00537 whole entry): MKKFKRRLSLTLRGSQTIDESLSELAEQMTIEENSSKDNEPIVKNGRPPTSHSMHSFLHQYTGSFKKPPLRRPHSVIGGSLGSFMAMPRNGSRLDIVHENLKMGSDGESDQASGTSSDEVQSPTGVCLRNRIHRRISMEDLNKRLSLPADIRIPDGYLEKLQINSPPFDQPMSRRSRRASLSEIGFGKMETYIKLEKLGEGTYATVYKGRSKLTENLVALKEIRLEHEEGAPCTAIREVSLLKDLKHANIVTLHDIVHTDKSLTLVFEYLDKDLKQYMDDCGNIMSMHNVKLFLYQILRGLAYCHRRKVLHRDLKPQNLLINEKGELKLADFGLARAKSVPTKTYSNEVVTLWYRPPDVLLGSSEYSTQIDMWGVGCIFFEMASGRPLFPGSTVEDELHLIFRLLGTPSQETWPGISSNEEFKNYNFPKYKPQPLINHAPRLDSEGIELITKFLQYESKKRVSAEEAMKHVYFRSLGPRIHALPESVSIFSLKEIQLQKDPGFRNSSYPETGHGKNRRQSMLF
smiles,measurement,setting,value
C=CC(=O)N1CCC[C@@H](n2nc(-c3ccc(Oc4ccccc4)cc3)c3c(N)ncnc32)C1 [Ibrutinib],"1 µM GBD00276 (ibrutinib), % inhibition",DRAK2,1.899%
same,"1 µM GBD00276 (ibrutinib), % inhibition",CDK17,5.795%
same,"1 µM GBD00276 (ibrutinib), % inhibition",NEK3,-16.35%
same,"1 µM GBD00276 (ibrutinib), % inhibition",KIT,2.778%
same,"1 µM GBD00276 (ibrutinib), % inhibition",PDK1,7.444%
same,"1 µM GBD00276 (ibrutinib), % inhibition",TTBK2,6.635%
same,"1 µM GBD00276 (ibrutinib), % inhibition",TTK,9.751%
same,"1 µM GBD00276 (ibrutinib), % inhibition",SGK2,-4.773%
same,"1 µM GBD00276 (ibrutinib), % inhibition",CDK1/B1,-7.635%
same,"1 µM GBD00276 (ibrutinib), % inhibition",CDK3/E1,0.5426%
same,"1 µM GBD00276 (ibrutinib), % inhibition",JAK2(JH1),4.378%
same,"1 µM GBD00276 (ibrutinib), % inhibition",PLK4,7.389%
same,"1 µM GBD00276 (ibrutinib), % inhibition",DCLK2/DCAML2,-15.45%
same,"1 µM GBD00276 (ibrutinib), % inhibition",CDK6/D3,7.258%
same,"1 µM GBD00276 (ibrutinib), % inhibition",EPHA6,17.71%
same,"1 µM GBD00276 (ibrutinib), % inhibition",CDK9/K,-8.235%
same,"1 µM GBD00276 (ibrutinib), % inhibition",TEK/TIE2,2.512%
same,"1 µM GBD00276 (ibrutinib), % inhibition",GSK3B,9.125%
same,"1 µM GBD00276 (ibrutinib), % inhibition",STK4/MST1,-13.54%
same,"1 µM GBD00276 (ibrutinib), % inhibition",CHAK1,-7.703%
same,"1 µM GBD00276 (ibrutinib), % inhibition",PRKCG/PKCG,-20.25%
same,"1 µM GBD00276 (ibrutinib), % inhibition",MNK2,-1.826%
same,"1 µM GBD00276 (ibrutinib), % inhibition",CSNK2A1/CK2A1,11.48%
same,"1 µM GBD00276 (ibrutinib), % inhibition",MARK2,4.287%
same,"1 µM GBD00276 (ibrutinib), % inhibition",CDC42BPG/DMPK2,-2.51%
same,"1 µM GBD00276 (ibrutinib), % inhibition",MERTK/MER,2.725%
same,"1 µM GBD00276 (ibrutinib), % inhibition",DDR1,24.25%
same,"1 µM GBD00276 (ibrutinib), % inhibition",RPS6KA6/RSK4,23.9%
same,"1 µM GBD00276 (ibrutinib), % inhibition",ULK3,2.341%
same,"1 µM GBD00276 (ibrutinib), % inhibition",HIPK1,7.799%
same,"1 µM GBD00276 (ibrutinib), % inhibition",FGFR2,32.69%
same,"1 µM GBD00276 (ibrutinib), % inhibition",RIPK1,-33.95%
same,"1 µM GBD00276 (ibrutinib), % inhibition",RPS6KA2/RSK3,22.45%
same,"1 µM GBD00276 (ibrutinib), % inhibition",CDK9/T1,-10.19%
same,"1 µM GBD00276 (ibrutinib), % inhibition",PRKCQ/PKCQ,12.04%
same,"1 µM GBD00276 (ibrutinib), % inhibition",MAP4K2/GCK,1.626%
same,"1 µM GBD00276 (ibrutinib), % inhibition",ERN1,1.571%
same,"1 µM GBD00276 (ibrutinib), % inhibition",NTRK2/TRKB,21.53%

# — paper PMC10337138 (Acta Neuropathologica Communications, 2023)
